Read-outs that look alike come from different tables or passages of the source.
Legend:
[1] = rcm bond
[2] = rcm bond, 1,2-dichloroethane, 60.0 °C
[3] = target: T1, BACE1 enzyme (Homo sapiens, UniProt P56817); assay: Radioligand displacement assay with a radiolabeled BACE inhibitor; type: binding; conditions: HEK293-9B.A1 cell homogenate overexpressing BACE1, 1 nM radioligand, pH 5.0, 1.5 hr at 25° C.; read-out: Activity Rating (activity based on IC50 values)
T1 construct: endogenous in cells; washed 48,000 x g membrane pellet / cell homogenate
Description: There are a number of methods by which inhibitors of the BACE enzyme can be identified experimentally. The enzyme can be obtained from membrane samples from natural tissues or cultured cells or can be expressed recombinantly in a host cell by well known methods of molecular biology. The whole enzyme or a portion thereof can be expressed, for example, in bacterial, insect or mammalian cells to obtain a catalytically active enzyme species. The enzymatic activity and/or ligand binding capability of the enzyme can be assessed within these membrane samples, or the enzyme can be purified to varying extents. As an illustrative example, the nucleic acid sequence encoding the pro and catalytic domains of human BACE can be appended on the 5′ end with an untranslated and signal sequence from the gene for acetylcholinesterase, and on the 3′ end with a sequence encoding a poly-histidine tag. This cDNA can then be expressed in Drosophila melanogaster S2 cells in which the signal and pro sequences of the transcribed/translated protein are removed by cellular proteases and the catalytic domain, appended by a C-terminal poly-histidine tag, is secreted out into the cellular medium. The enzyme can then be purified from the culture medium by nickel affinity chromatography by methods well known to those trained in the art [Mallender, W. et al., “Characterization of recombinant, soluble beta-secretase from an insect cell expression system.” Mol. Pharmacol. 2001, 59: 619-626]. Similar strategies for expressing and purifying various forms of BACE in bacterial, mammalian and other cell types would be known to one skilled in the art. A preferred method for determining the potency of a test compound in binding to the BACE enzyme is by monitoring the displacement of a suitable radioligand.
Radioligand displacement assays with a radiolabeled BACE inhibitor (WO 2004 013098, compound 3, where the methoxy group is substituted for C(^3H)3) were carried out using standard methods (Keen, M. (1999) in Receptor Binding Techniques (Walker, J. M. ed) p. 106 Humana Press, Totowa, N.J.). The HEK293-9B.A1 cell line, which overexpresses the BACE1 enzyme, was derived from HEK293 cells (Simmons, N. L. (1990) A cultured human renal epithelioid cell line responsive to vasoactive intestinal peptide. Exp. Physiol. 75:309-19.) by RAGE™ (Harrington, J. J. et al. (2001) Creation of genome-wide protein expression libraries using random activation of gene expression. Nat. Biotechnol. 19:440-5.; U.S. Pat. Nos. 6,410,266 and 6,361,972). T225 flask cultures of HEK293-9B.A1 were grown to 80% confluency in DMEM supplemented with 2 mM L-glutamine, 10 μg/mL penicillin, 10 μg/mL streptomycin, 3 μg/mL puromycin, 100 nM methotrexate, and 10% fetal bovine serum (Invitrogen, Carlsbad, Calif.), harvested, and resuspended at 2×10^8 cells per 10 mL of lysis buffer consisting of 50 mM HEPES pH 7.0 containing a protease inhibitor cocktail of AEBSF 104 μM, aprotinin 80 nM, leupeptin 2 μM, bestatin 4 μM, pepstatin A 1.5 μM, and E-64 1.4 μM (0.1% of protease inhibitor cocktail P8340, Sigma-Aldrich, St. Louis, Mo.) at 4° C. The resuspended cells were homogenized using a Polytron (Brinkman, Westbury, N.Y.) at setting 6 for 10 sec., then centrifuged at 48,000×g for 10 min. The resulting pellet was washed by repeating the resuspension, homogenization and centrifugation steps. The final pellet was resuspended in buffer at 4° C. to yield a total protein concentration of 5 mg/mL, then aliquots were frozen in liquid nitrogen for further storage at −70° C. Immediately before carrying out a binding assay, an aliquot of cell homogenate was thawed and diluted to a concentration of 100 μg/mL in assay buffer consisting of 50 mM HEPES pH 5.0 and 0.1% CHAPSO. […]

T1 sequence (P56817 46-501): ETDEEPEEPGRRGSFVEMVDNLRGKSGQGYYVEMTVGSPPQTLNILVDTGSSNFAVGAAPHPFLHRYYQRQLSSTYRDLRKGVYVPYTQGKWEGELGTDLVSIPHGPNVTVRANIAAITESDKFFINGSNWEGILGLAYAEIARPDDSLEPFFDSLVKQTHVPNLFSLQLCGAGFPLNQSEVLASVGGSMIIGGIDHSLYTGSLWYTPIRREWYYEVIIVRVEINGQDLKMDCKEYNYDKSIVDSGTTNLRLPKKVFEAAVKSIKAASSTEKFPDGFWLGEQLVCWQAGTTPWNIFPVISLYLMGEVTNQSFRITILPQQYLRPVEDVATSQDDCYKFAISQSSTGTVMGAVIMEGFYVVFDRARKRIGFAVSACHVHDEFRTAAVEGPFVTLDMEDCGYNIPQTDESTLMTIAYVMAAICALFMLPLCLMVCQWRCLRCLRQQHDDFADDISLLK

CCCC(CCC)C(=O)N(C)[C@H]1CC=CCO[C@@H]2C[C@H](NC[C@@H](O)[C@H](Cc3ccccc3)NC1=O)c1cc(OC)ccc12
ring closure, yield after HPLC ([1]; from C=CCO[C@@H]1C[C@H](NC[C@@H](O)[C@H](Cc2ccccc2)NC(=O)[C@H](CC=C)N(C)C(=O)C(CCC)CCC)c2cc(OC)ccc21, 15-membered ring, Hoveyda-Grubbs II (9 mol%), DCM, 25.0 °C, 16.0 h): 34%

CCCCCS(=O)(=O)N(C)[C@H]1CC=CCCCc2ccc(C)cc2CNC[C@@H](O)[C@H](Cc2cc(F)cc(F)c2)NC1=O
ring closure, isolated yield ([2]; from (S)-N-((2S,3R)-1-(3,5-difluorophenyl)-3-hydroxy-4-(5-methyl-2-(pent-4-enyl)benzylamino)butan-2-yl)-2-(N-methylpentylsulfonamido) pent-4-enamide, 16-membered ring, Hoveyda-Grubbs (20 mol%), 6.3 mM): 18%

CCCOc1ccc2c(c1)[C@@H]1C[C@H]2OCC=CCCCC(=O)N[C@@H](Cc2cc(F)cc(F)c2)[C@H](O)CN1
ring closure, yield after HPLC ([1]; from C=CCCCC(=O)N[C@@H](Cc1cc(F)cc(F)c1)[C@H](O)CN[C@H]1C[C@@H](OCC=C)c2ccc(OCCC)cc21, 16-membered ring, Hoveyda-Grubbs II, DCM, 25.0 °C, 16.0 h): 20%

COc1ccc2c(c1)[C@@H]1CC2N(C(=O)OCc2ccccc2)CCC=CC[C@H](N(C)C(C)=O)C(=O)N[C@@H](Cc2ccccc2)[C@H](O)CN1
ring closure, yield after HPLC ([1]; from C=CCCN(C(=O)OCc1ccccc1)C1C[C@H](NC[C@@H](O)[C@H](Cc2ccccc2)NC(=O)[C@H](CC=C)N(C)C(C)=O)c2cc(OC)ccc21, 16-membered ring): 83%

CCCCCS(=O)(=O)N(C)[C@H]1CC=CCCCc2ccc(C(F)(F)F)cc2CNC[C@@H](O)[C@H](Cc2cc(F)cc(F)c2)NC1=O [Example 40, N-((4R,5S,8S)-5-(3,5-difluorobenzyl)-4-hydroxy-17-(trifluoromethyl)-7-oxo-1,2,3,4,5,6,7,8,9,12,13,14-dodecahydrobenzo[g][1,5]diazacyclohexadecin-8-yl)-N-methylpentane-1-sulfonamide]
ring closure, isolated yield ([2]; from C=CCCCc1ccc(C(F)(F)F)cc1CNC[C@@H](O)[C@H](Cc1cc(F)cc(F)c1)NC(=O)[C@H](CC=C)N(C)S(=O)(=O)CCCCC, 16-membered ring, Hoveyda-Grubbs (19 mol%), 6.5 mM, 16.0 h): 32% | IC50 [3]: 0.01 to 0.5 µM

CC(C)C[C@@H]1COCC=CCC[C@H](N(C)S(=O)(=O)CCC(F)(F)F)C(=O)N[C@@H](Cc2cc(F)cc(F)c2)[C@H](O)CN1 [Example 42, N-((3R,6R,7S,10S)-7-(3,5-difluorobenzyl)-6-hydroxy-3-isobutyl-9-oxo-1-oxa-4,8-diazacyclopentadec-13-en-10-yl)-3,3,3-trifluoro-N-methylpropane-1-sulfonamide]
ring closure, isolated yield ([2]; from C=CCC[C@@H](C(=O)N[C@@H](Cc1cc(F)cc(F)c1)[C@H](O)CN[C@@H](COCC=C)CC(C)C)N(C)S(=O)(=O)CCC(F)(F)F, 15-membered ring, Hoveyda-Grubbs (16 mol%), 19.0 mM, 16.0 h): 19% | IC50 [3]: > 0.5 µM

CCCC[C@H](C)C(=O)N(C)[C@H]1CC=CCOc2ccc(OC)cc2CNC[C@@H](O)[C@H](Cc2ccccc2)NC1=O [Example 59, (S)-N-((6S,9S,10R)-9-benzyl-10-hydroxy-15-methoxy-7-oxo-2,5,6,7,8,9,10,11,12,13-decahydrobenzo[b][1,5,9]oxadiazacyclopentadecin-6-yl)-N,2-dimethylhexanamide]
ring closure, yield after HPLC ([1]; from C=CCOc1ccc(OC)cc1CNC[C@@H](O)[C@H](Cc1ccccc1)NC(=O)[C@H](CC=C)N(C)C(=O)[C@@H](C)CCCC, 15-membered ring, Hoveyda-Grubbs II (21 mol%), DCM, 4.3 mM, 40.0 °C, 4.0 h): 49% | IC50 [3]: > 0.5 µM

O=C1CCCC=CCO[C@@H]2C[C@H](NC[C@@H](O)[C@H](Cc3cc(F)cc(F)c3)N1)c1cc(-c3cc(C(F)(F)F)cc(C(F)(F)F)c3)ccc12 [Example 91, (1S,4R,5S,15R)-19-(3,5-bis-trifluoromethyl-phenyl)-5-(3,5-difluoro-benzyl)-4-hydroxy-14-oxa-2,6-diaza-tricyclo[13.6.1.0^16,21]docosa-11,16(21),17,19-tetraen-7-one]
IC50 [3]: > 0.5 µM

CC(C)(C)OC(=O)N1CC2CN(c3ccc4c(c3)[C@@H]3C[C@H]4OCC=CCCCC(=O)N[C@@H](Cc4cc(F)cc(F)c4)[C@H](O)CN3)CC2C1 (stereo partly drawn) [Example 96, 5-[(1S,4R,5S,15R)-5-(3,5-difluoro-benzyl)-4-hydroxy-7-oxo-14-oxa-2,6-diaza-tricyclo[13.6.1.0^16,21]docosa-11,16(21),17,19-tetraen-19-yl]-hexahydro-pyrrolo[3,4-c]pyrrole-2-carboxylic acid tert-butyl ester]
IC50 [3]: 0.01 to 0.5 µM

CCCC[C@H](C)C(=O)N(C)[C@H]1CC=CCO[C@@H]2C[C@H](NC[C@@H](O)[C@H](Cc3ccccc3)NC1=O)c1cc(C)cc(C)c12 [Example 100, (S)-2-methyl-hexanoic acid ((1S,4R,5S,8S,14R)-5-benzyl-4-hydroxy-16,18-dimethyl-7-oxo-13-oxa-2,6-diaza-tricyclo[12.6.1.0^15,20]henicosa-10,15(20),16,18-tetraen-8-yl)-methyl-amide]
IC50 [3]: < 0.01 µM
